Row | Structure (SMILES) | logP
1 | CCCC(=O)OC1OC2OC3(C)CCC4C(C)CCC(C1C)C24OO3 (centres undefined) | 2.99
2 | CC(=O)OC1OC2OC3(C)CCC4C(C)CCC(C1C)C24OO3 (centres undefined) | 2.08
3 | CO[C@@H]1O[C@@H]2O[C@@]3(C)CC[C@H]4[C@H](C)CC[C@@H]([C@H]1C)[C@@]24OO3 (relative stereo) | 2.86
4 | CCOC(=O)OC1OC2OC3(C)CCC4C(C)CCC(C1C)C24OO3 (centres undefined) | 2.37
5 | CC1CCC2C(C)C(OC(=O)C=Cc3ccccc3)OC3OC4(C)CCC1C32OO4 (centres undefined) | 3.83
6 | CC(C)OC1OC2OC3(C)CCC4C(C)CCC(C1C)C24OO3 (centres undefined) | 3.49
7 | CC(C)CCOC1OC2OC3(C)CCC4C(C)CCC(C1C)C24OO3 (centres undefined) | 4.07
8 | CCCOC(=O)OC1OC2OC3(C)CCC4C(C)CCC(C1C)C24OO3 (centres undefined) | 3.11
9 | CCO[C@H]1O[C@@H]2O[C@@]3(C)CC[C@H]4[C@H](C)CC[C@@H]([C@H]1C)[C@@]24OO3 | 3.29
10 | CCCOC1OC2OC3(C)CCC4C(C)CCC(C1C)C24OO3 (centres undefined) | 3.65
11 | CCC(=O)OC1OC2OC3(C)CCC4C(C)CCC(C1C)C24OO3 (centres undefined) | 2.33
12 | CC1CCC2C(C)C(OC(=O)Oc3ccccc3)OC3OC4(C)CCC1C32OO4 (centres undefined) | 3.38
13 | CC1CCC2C(C)C(OCc3ccccc3)OC3OC4(C)CCC1C32OO4 (centres undefined) | 4.2
14 | COCCOCCOC1OC2OC3(C)CCC4C(C)CCC(C1C)C24OO3 (centres undefined) | 3.51
